Columns and labels:
[1] = Potential characterization of nucleic acid lipid nanoparticle preparations; assay type: physicochemical
Procedure, shortened: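 Zeta potential was read on a Malvern ZEN3700 after diluting 20 μL lipid nanoparticle solution (about 0.04 mg/mL mRNA) into 780 μL ultrapure water. Alternatively, a 27.5 μL sample in 200 μL water was first sized by dynamic light scattering, then diluted with 600 μL more water for potential measurement.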

[2] = Particle size and PDI of nucleic acid lipid nanoparticle preparations by dynamic light scattering; assay type: physicochemical
Procedure, shortened: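 LNP solution (about 0.04 mg/mL mRNA before dilution) was diluted in ultrapure water and mixed by gentle pipetting. Particle size and PDI were then measured by dynamic light scattering.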

mice = experiment: In vivo delivery of FLuc-mRNA lipid nanoparticles in mice, in vivo imaging (IVIS)
Procedure, shortened: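 Mice (n=3) received about 75 μL FLuc-mRNA LNP per mouse intramuscularly (rectus femoris), intravenously (tail vein), intraperitoneally or subcutaneously (back). After injection, D-luciferin (200 μL, 15 mg/mL) was given i.p. 10-15 min before IVIS imaging.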

[3] = DMG-PEG2000:DSPC:Chol:compound 1.40:11.15:38.95:48.50, N/P 30
[4] = IM, DMG-PEG2000:DSPC:Chol:compound 1.40:11.15:38.95:48.50, N/P 30, Fluc-mRNA
[5] = IV, body, DMG-PEG2000:DSPC:Chol:compound 1.40:11.15:38.95:48.50, N/P 30, Fluc-mRNA
[6] = IV, liver, DMG-PEG2000:DSPC:Chol:compound 1.40:11.15:38.95:48.50, N/P 30
[7] = IV, liver, DMG-PEG2000:DSPC:Chol:compound 1.40:11.15:38.95:48.50, N/P 30, Fluc-mRNA
[8] = IV, lung, DMG-PEG2000:DSPC:Chol:compound 1.40:11.15:38.95:48.50, N/P 30
[9] = IV, lung, DMG-PEG2000:DSPC:Chol:compound 1.40:11.15:38.95:48.50, N/P 30, Fluc-mRNA
[10] = IV, spleen, DMG-PEG2000:DSPC:Chol:compound 1.40:11.15:38.95:48.50, N/P 30
[11] = IV, spleen, DMG-PEG2000:DSPC:Chol:compound 1.40:11.15:38.95:48.50, N/P 30, Fluc-mRNA
[12] = DMG-PEG2000:DPPC:Chol:compound 1.40:11.15:38.95:48.50, N/P 30
[13] = DMG-PEG2000:DSPC:Chol:compound 1.40:11.15:38.95:48.50, N/P 40
[14] = DMG-PEG2000:DSPC:Chol:compound 1.00:10.00:33.00:56.00, N/P 35.5
[15] = DSPE-PEG5000:DPPC:Chol:compound 1.00:11.15:39.35:48.50, N/P 15
[16] = DSPE-PEG5000:DSPC:Chol:compound 1.40:11.15:38.95:48.50, N/P 30

Row | SMILES | Zeta potential (mV) [1, 3] [mV] | PDI [2, 3] | Particle size (nm) [2, 3] [nm] | IVIS (mice; [4]) | IVIS (mice; [5]) | % of organ targeting (mice; [6]) [%] | IVIS (mice; [7]) | % of organ targeting (mice; [8]) [%] | IVIS (mice; [9]) | % of organ targeting (mice; [10]) [%] | IVIS (mice; [11]) | other results
1 | CCCCCCCCCCCCNC(=O)C(O)CNCCCN(C)CCCN(CC(O)C(=O)NCCCCCCCCCCCC)CC(O)C(=O)NCCCCCCCCCCCC (centres unmarked) [Compound L0288] | 12.50 | 0.12 | 108.77 | 1.45E+05 | 6.03E+06 | 5.74 | 5.25E+05 | 78.38 | 7.18E+06 | 15.88 | 1.45E+06 | 
2 | CCCCCCOC(C)OCCCCCCOC(=O)C(O)CN(CCCN(CC(O)C(=O)OCCCCCCOC(C)OCCCCCC)CC(O)C(=O)OCCCCCCOC(C)OCCCCCC)CCCN(CC(O)C(=O)OCCCCCCOC(C)OCCCCCC)CC(O)C(=O)OCCCCCCOC(C)OCCCCCC (centres unmarked) [Compound L0340] | 4.11 | 0.12 | 125.77 | 4.87E+07 | 9.07E+07 | 65.77 | 2.85E+07 | 1.45 | 6.29E+05 | 32.78 | 1.42E+07 | 
3 | CCCCCCCC/C=C\CCCCCCCCNC(=O)C(O)CN(CCCN(C)CCCN(CC(O)C(=O)NCCCCCCCC/C=C\CCCCCCCC)CC(O)C(=O)NCCCCCCCC/C=C\CCCCCCCC)CC(O)C(=O)NCCCCCCCC/C=C\CCCCCCCC (centres unmarked) [Compound L0317] | 13.53 | 0.15 | 117.83 | 1.53E+06 | 3.60E+07 | 3.15 | 2.78E+06 | 79.76 | 7.03E+07 | 17.09 | 1.51E+07 | 
4 | CCCCCCCCCCOC(=O)C(O)CN(C)CCCN(C)CCCN(C)CC(O)C(=O)OCCCCCCCCCC (centres unmarked) [Compound L0315] | 12.5 | 0.13 | 141.63 | 8.43E+05 |  |  |  |  |  |  |  | IVIS (mice; IV, organ not given, DMG-PEG2000:DSPC:Chol:compound 1.40:11.15:38.95:48.50, N/P 30, Fluc-mRNA): 5.00E+05
5 | CCCCCCCCCCCCN(C)C(=O)C(O)CN(CCN(C)CCN(CC(O)C(=O)N(C)CCCCCCCCCCCC)CC(O)C(=O)N(C)CCCCCCCCCCCC)CC(O)C(=O)N(C)CCCCCCCCCCCC (centres unmarked) [Compound L0344] |  |  |  |  |  |  |  |  |  |  |  | Zeta potential (mV) [1, 12]: 16.13 mV; PDI [2, 12]: 0.26; Particle size (nm) [2, 12]: 89.56 nm; IVIS (mice; IM, DMG-PEG2000:DPPC:Chol:compound 1.40:11.15:38.95:48.50, N/P 30, Fluc-mRNA): 8.28E+04; IVIS (mice; IV, body, DMG-PEG2000:DPPC:Chol:compound 1.40:11.15:38.95:48.50, N/P 30, Fluc-mRNA): 1.91E+06; % of organ targeting (mice; IV, liver, DMG-PEG2000:DPPC:Chol:compound 1.40:11.15:38.95:48.50, N/P 30): 2.01%; IVIS (mice; IV, liver, DMG-PEG2000:DPPC:Chol:compound 1.40:11.15:38.95:48.50, N/P 30, Fluc-mRNA): 1.15E+05; % of organ targeting (mice; IV, lung, DMG-PEG2000:DPPC:Chol:compound 1.40:11.15:38.95:48.50, N/P 30): 93.07%; IVIS (mice; IV, lung, DMG-PEG2000:DPPC:Chol:compound 1.40:11.15:38.95:48.50, N/P 30, Fluc-mRNA): 5.32E+06; % of organ targeting (mice; IV, spleen, DMG-PEG2000:DPPC:Chol:compound 1.40:11.15:38.95:48.50, N/P 30): 4.92%; IVIS (mice; IV, spleen, DMG-PEG2000:DPPC:Chol:compound 1.40:11.15:38.95:48.50, N/P 30, Fluc-mRNA): 2.81E+05
6 | CCCCCCCCCCNC(=O)C(O)CN(CCCN(CCCN(CCO)CCO)CCCN(CC(O)C(=O)NCCCCCCCCCC)CC(O)C(=O)NCCCCCCCCCC)CC(O)C(=O)NCCCCCCCCCC (centres unmarked) [Compound L0304] |  |  |  |  |  |  |  |  |  |  |  | Zeta potential (mV) [1, 13]: 11.93 mV; PDI [2, 14]: 0.15; Particle size (nm) [2, 14]: 121.27 nm; PDI [2, 13]: 0.14; Particle size (nm) [2, 13]: 101.73 nm; IVIS (mice; IM, DMG-PEG2000:DSPC:Chol:compound 1.40:11.15:38.95:48.50, N/P 40, Fluc-mRNA): 3.48E+05; IVIS (mice; IV, body, DMG-PEG2000:DSPC:Chol:compound 1.00:10.00:33.00:56.00, N/P 35.5, Fluc-mRNA): 9.15E+06; IVIS (mice; IV, body, DMG-PEG2000:DSPC:Chol:compound 1.40:11.15:38.95:48.50, N/P 40, Fluc-mRNA): 1.29E+07; % of organ targeting (mice; IV, liver, DMG-PEG2000:DSPC:Chol:compound 1.00:10.00:33.00:56.00, N/P 35.5): 2.63%; IVIS (mice; IV, liver, DMG-PEG2000:DSPC:Chol:compound 1.00:10.00:33.00:56.00, N/P 35.5, Fluc-mRNA): 6.18E+05; % of organ targeting (mice; IV, liver, DMG-PEG2000:DSPC:Chol:compound 1.40:11.15:38.95:48.50, N/P 40): 2.30%; IVIS (mice; IV, liver, DMG-PEG2000:DSPC:Chol:compound 1.40:11.15:38.95:48.50, N/P 40, Fluc-mRNA): 7.31E+05; % of organ targeting (mice; IV, lung, DMG-PEG2000:DSPC:Chol:compound 1.00:10.00:33.00:56.00, N/P 35.5): 90.44%; IVIS (mice; IV, lung, DMG-PEG2000:DSPC:Chol:compound 1.00:10.00:33.00:56.00, N/P 35.5, Fluc-mRNA): 2.12E+07; % of organ targeting (mice; IV, lung, DMG-PEG2000:DSPC:Chol:compound 1.40:11.15:38.95:48.50, N/P 40): 90.53%; IVIS (mice; IV, lung, DMG-PEG2000:DSPC:Chol:compound 1.40:11.15:38.95:48.50, N/P 40, Fluc-mRNA): 2.87E+07; % of organ targeting (mice; IV, spleen, DMG-PEG2000:DSPC:Chol:compound 1.00:10.00:33.00:56.00, N/P 35.5): 6.93%; IVIS (mice; IV, spleen, DMG-PEG2000:DSPC:Chol:compound 1.00:10.00:33.00:56.00, N/P 35.5, Fluc-mRNA): 1.62E+06; % of organ targeting (mice; IV, spleen, DMG-PEG2000:DSPC:Chol:compound 1.40:11.15:38.95:48.50, N/P 40): 7.17%; IVIS (mice; IV, spleen, DMG-PEG2000:DSPC:Chol:compound 1.40:11.15:38.95:48.50, N/P 40, Fluc-mRNA): 2.27E+06
7 | CCCCCCCCCCN(C)C(=O)C(O)CN(C)CCN(C)CCN(C)CC(O)C(=O)N(C)CCCCCCCCCC (centres unmarked) [Compound L0348] |  |  |  |  |  |  |  |  |  |  |  | Zeta potential (mV) [1, 15]: 5.54 mV; PDI [2, 15]: 0.14; Particle size (nm) [2, 15]: 118.20 nm; IVIS (mice; Fluc-mRNA LNP, route IM, organ not given, formulation, molar ratio and N/P as in the table): 3.49E+05; IVIS (mice; IV, organ not given, DSPE-PEG5000:DPPC:Chol:compound 1.00:11.15:39.35:48.50, N/P 15, Fluc-mRNA): 4.84E+05
8 | CCCCCCCCCCCCN(C)C(=O)C(O)CN(CCCN(CC(O)C(=O)N(C)CCCCCCCCCCCC)CC(O)C(=O)N(C)CCCCCCCCCCCC)CCCN(CC(O)C(=O)N(C)CCCCCCCCCCCC)CC(O)C(=O)N(C)CCCCCCCCCCCC (centres unmarked) [Compound L0342] |  |  |  |  |  |  |  |  |  |  |  | Zeta potential (mV) [1, 16]: 5.68 mV; PDI [2, 16]: 0.24; Particle size (nm) [2, 16]: 73.79 nm; IVIS (mice; IM, DSPE-PEG5000:DSPC:Chol:compound 1.40:11.15:38.95:48.50, N/P 30, Fluc-mRNA): 2.02E+07; IVIS (mice; IV, organ not given, DSPE-PEG5000:DSPC:Chol:compound 1.40:11.15:38.95:48.50, N/P 30, Fluc-mRNA): 5.77E+06
9 | CCCCCCC(CCCCCC)C(=O)OCCCCCCOC(=O)C(O)CN(CCN(C)CCN(CC(O)C(=O)OCCCCCCOC(=O)C(CCCCCC)CCCCCC)CC(O)C(=O)OCCCCCCOC(=O)C(CCCCCC)CCCCCC)CC(O)C(=O)OCCCCCCOC(=O)C(CCCCCC)CCCCCC (centres unmarked) [Compound L0336] | 4.21 | 0.13 | 78.38 | 1.51E+08 | 9.63E+08 | 87.42 | 1.95E+08 | 0.71 | 1.59E+06 | 11.87 | 2.65E+07 | 
10 | CCCCCCCCCCOC(=O)C(O)CN(CCCN(CC(O)C(=O)OCCCCCCCCCC)CC(O)C(=O)OCCCCCCCCCC)CCCN(CC(O)C(=O)OCCCCCCCCCC)CC(O)C(=O)OCCCCCCCCCC (centres unmarked) [Compound L0339] | 12.37 | 0.15 | 126.63 | 8.33E+07 | 5.92E+07 | 28.78 | 1.17E+07 | 0.41 | 1.67E+05 | 70.81 | 2.87E+07 | 
